Assay results taken from ChEMBL document CHEMBL5260809, “Isoxazole ring as a useful scaffold in a search for new therapeutic agents” (Eur J Med Chem, 2017).
Values after ≈ are worked out from the molar mass of the structure shown.

Experiments:
MDA-MB-231 = assay: Antimigratory activity against human MDA-MB-231 cells; type: functional, cell-based
[1] = Induction of sodium-22 influx in human TE-671 cells; type: functional, cell-based
Rattus norvegicus [2] = organism: Rattus norvegicus; assay: Protective index, ratio of TD50 for rat to ED50 for anticonvulsant activity in rat; type: functional
[3] = Toxicity in rat; conditions: in vivo
Rattus norvegicus [4] = organism: Rattus norvegicus; assay: Anticonvulsant activity in rat maximal electroshock seizure model; type: functional
[5] = Selectivity index, ratio of CC50 for human HeLa cells to IC50 for Human rhinovirus 2; type: toxicity; conditions: read-out: Ratio CC50/IC50
[6] = Selectivity index, ratio of CC50 for human HeLa cells to IC50 for Coxsackievirus B3 isolate 97-927; type: toxicity; conditions: read-out: Ratio CC50/IC50
Escherichia coli = assay: Antibacterial activity against Escherichia coli assessed as zone of inhibition at 50 ug/ml by agar disc diffusion method; type: functional; conditions: read-out: IZ
Staphylococcus aureus = assay: Antibacterial activity against Staphylococcus aureus assessed as zone of inhibition at 50 ug/ml by agar disc diffusion method; type: functional; conditions: read-out: IZ
[7] = target: T1, Muscarinic acetylcholine receptor M1 (Rattus norvegicus, UniProt P08482); assay: Agonist activity at rat M1 muscarinic receptor
T1 sequence (P08482 whole entry): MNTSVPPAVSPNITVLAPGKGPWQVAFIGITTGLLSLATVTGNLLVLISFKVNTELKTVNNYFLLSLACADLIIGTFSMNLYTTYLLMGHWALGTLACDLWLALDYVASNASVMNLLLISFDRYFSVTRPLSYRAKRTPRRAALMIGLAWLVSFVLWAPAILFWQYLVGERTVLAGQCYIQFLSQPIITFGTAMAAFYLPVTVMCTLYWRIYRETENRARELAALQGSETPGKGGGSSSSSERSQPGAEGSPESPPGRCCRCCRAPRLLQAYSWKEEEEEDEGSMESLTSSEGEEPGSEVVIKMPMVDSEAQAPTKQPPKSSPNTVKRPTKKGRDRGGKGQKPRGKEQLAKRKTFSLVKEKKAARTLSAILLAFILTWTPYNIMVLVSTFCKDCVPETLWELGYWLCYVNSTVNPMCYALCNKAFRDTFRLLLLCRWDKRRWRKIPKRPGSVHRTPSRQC

[8] = target: T2, Muscarinic acetylcholine receptor M2 (Rattus norvegicus, UniProt P10980); assay: Agonist activity at rat M2 muscarinic receptor
T2 sequence (P10980 whole entry): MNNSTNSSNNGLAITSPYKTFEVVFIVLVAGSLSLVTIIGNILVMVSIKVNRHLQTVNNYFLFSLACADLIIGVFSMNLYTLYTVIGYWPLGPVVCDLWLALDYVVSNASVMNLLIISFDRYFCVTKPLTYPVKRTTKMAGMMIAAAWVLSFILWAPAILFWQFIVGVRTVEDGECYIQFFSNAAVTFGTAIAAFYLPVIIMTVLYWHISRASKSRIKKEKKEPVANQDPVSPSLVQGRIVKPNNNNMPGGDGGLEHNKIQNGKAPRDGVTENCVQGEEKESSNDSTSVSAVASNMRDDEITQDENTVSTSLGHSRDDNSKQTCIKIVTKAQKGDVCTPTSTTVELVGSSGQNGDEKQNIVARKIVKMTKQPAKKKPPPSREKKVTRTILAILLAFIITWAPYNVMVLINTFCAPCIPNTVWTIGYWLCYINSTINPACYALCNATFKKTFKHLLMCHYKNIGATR

Coxsackievirus B3 = assay: Antiviral activity against Coxsackievirus B3; type: functional, organism-based; conditions: Enterovirus B
[9] = test system: Human immunodeficiency virus 1; assay: Antiviral activity against HIV-1 assessed as reduction in multinucleated cells production at 25 ug/ml; type: functional; parameters: scale not given: the % may be the effect or the level left; conditions: dose 25 µg/ml
Mus musculus = organism: Mus musculus; assay: Antithrombotic activity in Swiss mouse model of collagen and adrenaline-induced thrombosis assessed as increase in bleeding time; type: functional

CCc1cc(-c2oncc2-c2ccc(OC)cc2)c(O)cc1OC
IC50 (MDA-MB-231): 150 nM

Cc1cc(C2CC3CCC2N3)on1 (stereo not given)
EC50 [1]: 2600 nM

Cc1cc(NC2=CC(=O)C(C(=O)OC(C)(C)C)C(C)C2)no1 (stereo not given)
Ratio (Rattus norvegicus [2]): >49.6

Cc1cc(C(=O)Nc2c(C)cccc2C)no1
TD50 [3]: > 500 mg/kg
ED50 (Rattus norvegicus [4]): 5.5 mg/kg

Clc1ccc([C@H]2CC3CCC2N3)cn1 (stereo not given in full)
EC50 [1]: 520 nM

Cc1cc(CCCOc2ccc(-c3ccccc3C)cc2)on1
selectivity ratio [5]: 57.5
selectivity ratio [6]: 2.6

CCOC(=O)C1C(c2c(OCc3ccccc3)c(Br)cc3c(Cl)c(Cl)c(=O)oc23)=NOC1c1ccc(C(F)(F)F)cc1 (stereo not given)
zone of inhibition at 50 µg/mL (Escherichia coli): 20 mm
zone of inhibition at 50 µg/mL (Staphylococcus aureus): 24 mm

CCc1cc(-c2oncc2-c2ccc(Br)cc2)c(O)cc1OC
IC50 (MDA-MB-231): 50 nM

Cc1cc(CCCOc2ccc(-c3cccc(F)c3)cc2)on1
selectivity ratio [5]: 230
selectivity ratio [6]: 2.9

Cc1cc(NC(=O)c2c(C)cccc2C)on1
TD50 [3]: > 500 mg/kg
ED50 (Rattus norvegicus [4]): 8.9 mg/kg

C#CCOc1noc2c1CNCCC2C (stereo not given)
EC50 [7]: 1300 nM
EC50 [8]: > 51000 nM

Cc1cc(CCCOc2ccc(-c3ccc(F)cc3)cc2)on1
selectivity ratio [5]: > 5560
selectivity ratio [6]: > 37.3

Cc1cn(Cc2cc([C@@H](Cc3ccccc3)NC(=O)OC(C)(C)C)no2)c(=O)n(C(=O)c2ccccc2)c1=O
EC50 (Coxsackievirus B3): 10.6 µg/mL (≈ 20 µM)

O=C(CBr)c1cc(-c2ccccc2)no1
Activity [9]: 95%

N#Cc1ccc(CN(Cc2cc(-c3ccccc3Cl)on2)C(CCCNC(=N)N)C(N)=O)cc1 (stereo not given)
Activity (Mus musculus): 87.5%

O=C(N[C@H](CO)[C@H](O)c1ccc([N+](=O)[O-])cc1)C(Cl)Cl [CHLORAMPHENICOL]
zone of inhibition at 50 µg/mL (Escherichia coli): 21 mm
zone of inhibition at 50 µg/mL (Staphylococcus aureus): 23 mm

NC(=O)c1ncn([C@@H]2O[C@H](CO)[C@@H](O)[C@H]2O)n1 [RIBAVIRIN]
EC50 (Coxsackievirus B3): 92.5 µg/mL (≈ 379 µM)
